Counter-ions that a name gives are not always drawn. Like-named read-outs stand apart in the source and are kept apart here.
Tests used:
C6/36 cells = format: cell-based, Ae. albopictus
ZIKV SPH [1] = assay: Autophagy compound library screen, ZIKV SPH titer (TCID50) in C6/36 cells; format: cell-based, Zika virus; details: 10 µM compound, MOI 0.1, 96 h, TCID50, ± SEM, three independent trials; for activity at 10 µM: Zika virus, C6/36, read-out: ZIKV SPH Relative Titer in C6/36 Cells
Vero cells = assay: Cell viability (CellTiter-Glo) of Vero cells; format: cell-based
ZIKV SPH [2] = assay: Autophagy compound library screen, ZIKV SPH titer (TCID50) in Vero cells; format: cell-based, Zika virus; details: 10 µM compound, MOI 0.1, 40 h, TCID50; ± SEM, three independent trials
[3] = 10 µM compound, 96 h, CellTiter-Glo, ± SEM, three independent trials
[4] = 10 µM compound, 40 h, CellTiter-Glo, ± SEM, three independent trials

| Molecule | C6/36 Viability (C6/36 cells; 10 µM) | activity at 10 µM (ZIKV SPH [1]) [%] | Vero Viability (Vero cells; 10 µM) | C6/36 Viability (C6/36 cells; [3]) | Vero Viability (Vero cells; [4]) | ZIKV SPH Relative Titer in C6/36 Cells (ZIKV SPH [1]) | ZIKV SPH Relative Titer in Vero Cells (ZIKV SPH [2]) |
| --- | --- | --- | --- | --- | --- | --- | --- |
| Oc1ccc(-c2nc(-c3ccncc3)c(-c3ccc(F)cc3)[nH]2)cc1 [SB202190] | 44 ± 7.9% of untreated control | 25.9 ± 7.4 | 74.3 ± 5.2% of untreated control | – | – | – | – |
| Cn1cc(C2=C(c3ccc(Cl)cc3Cl)C(=O)NC2=O)c2ccccc21 [SB-216763] | – | 54 ± 21.7 | 80.0 ± 9% of untreated control | 63 ± 3.6% of untreated control | – | – | – |
| Oc1c2ccccc2c2c3c(cccc13)N=N2 [SP600125] | 132 ± 9% of untreated control | 50.3 ± 19.8 | 66.0 ± 2.1% of untreated control | – | – | – | – |
| CCN(CC)CCNC(=O)c1c(C)[nH]c(/C=C2\C(=O)Nc3ccc(Cl)cc32)c1C [SU11652] | 1 ± 0% of untreated control | 0 | 1.0 ± 0% of untreated control | – | – | – | – |
| CCCC(CCC)C(=O)O [Sodium Valproate] | – | 111 ± 20.7 | 92.7 ± 1.2% of untreated control | 111 ± 6.2% of untreated control | – | – | – |
| NCCCCNCCCN [Spermidine] | 70 ± 3% of untreated control | 90.2 ± 57.4 | 78.0 ± 17% of untreated control | – | – | – | – |
| CN[C@@H]1C[C@H]2O[C@@](C)([C@@H]1OC)n1c3ccccc3c3c4c(c5c6ccccc6n2c5c31)C(=O)NC4 [Staurosporine] | – | 0 | – | 16 ± 5.3% of untreated control | 14.0 ± 1.5% of untreated control | – | – |
| CC/C(=C(\c1ccccc1)c1ccc(OCCN(C)C)cc1)c1ccccc1 [Tamoxifen citrate] | – | 8.2 ± 7.3 | 60.7 ± 18.4% of untreated control | 32 ± 11.9% of untreated control | – | – | – |
| Cn1nnc2c(C(N)=O)ncn2c1=O [Temozolomide] | 113 ± 9.2% of untreated control | 219 ± 49.8 | 104.7 ± 1.9% of untreated control | – | – | – | – |
| C/C=C(/C)C(=O)O[C@H]1C(C)=C2[C@H]([C@@H]1OC(=O)CCCCCCC)[C@@](C)(OC(C)=O)C[C@H](OC(=O)CCC)[C@@]1(O)[C@H]2OC(=O)[C@@]1(C)O [Thapsigargin] | 23 ± 3.9% of untreated control | 0 | 38.0 ± 10.5% of untreated control | – | – | – | – |
| C[C@H]1CC[C@@]2(OC1)O[C@H]1C[C@H]3[C@@H]4CC[C@@H]5C[C@@H](O[C@@H]6O[C@H](CO)[C@H](O)[C@H](O)[C@H]6O[C@@H]6O[C@H](CO)[C@@H](O)[C@H](O)[C@H]6O)CC[C@]5(C)[C@H]4CC[C@]3(C)[C@H]1[C@@H]2C [Timosaponin A-III] | – | 13 ± 5.2 | 38.7 ± 11.9% of untreated control | 67 ± 3.6% of untreated control | – | – | – |
| Cc1ccc(S(=O)(=O)NC(=O)NN2CCCCCC2)cc1 [Tolazamide] | – | 120 ± 33.7 | 99.0 ± 1.5% of untreated control | 113 ± 7.3% of untreated control | – | – | – |
| COc1ccc(CCN(C)CCCC(C#N)(c2ccc(OC)c(OC)c2)C(C)C)cc1OC (centres unmarked) [Verapamil·HCl] | – | 89 ± 40.8 | – | 71 ± 2.9% of untreated control | 87.7 ± 0.9% of untreated control | – | – |
| Penitrem A | – | – | – | – | – | 29.8 ± 6.4% of untreated control | 34.9 ± 10.4% of untreated control |

From article PMC6356585 (Viruses, 2018)
